According to US20250320205A1, “STAT6 DEGRADERS” (Gilead Sciences, Inc., priority 2024, published 2025):

Each compound was assayed against T1, STAT6 (Homo sapiens, UniProt P42226) (assay: STAT6 Degrader Assay (HiBiT based, HeLa LgBiT clone 4.14 cells)). Settings: HeLa; maximal STAT6 degradation.
T1 construct: These cells express endogenous STAT6; host or cells: HeLa LgBiT clone 4.14 (CRISPR knock-in of HiBiT into the endogenous STAT6 gene)
T1 sequence (P42226 1-847): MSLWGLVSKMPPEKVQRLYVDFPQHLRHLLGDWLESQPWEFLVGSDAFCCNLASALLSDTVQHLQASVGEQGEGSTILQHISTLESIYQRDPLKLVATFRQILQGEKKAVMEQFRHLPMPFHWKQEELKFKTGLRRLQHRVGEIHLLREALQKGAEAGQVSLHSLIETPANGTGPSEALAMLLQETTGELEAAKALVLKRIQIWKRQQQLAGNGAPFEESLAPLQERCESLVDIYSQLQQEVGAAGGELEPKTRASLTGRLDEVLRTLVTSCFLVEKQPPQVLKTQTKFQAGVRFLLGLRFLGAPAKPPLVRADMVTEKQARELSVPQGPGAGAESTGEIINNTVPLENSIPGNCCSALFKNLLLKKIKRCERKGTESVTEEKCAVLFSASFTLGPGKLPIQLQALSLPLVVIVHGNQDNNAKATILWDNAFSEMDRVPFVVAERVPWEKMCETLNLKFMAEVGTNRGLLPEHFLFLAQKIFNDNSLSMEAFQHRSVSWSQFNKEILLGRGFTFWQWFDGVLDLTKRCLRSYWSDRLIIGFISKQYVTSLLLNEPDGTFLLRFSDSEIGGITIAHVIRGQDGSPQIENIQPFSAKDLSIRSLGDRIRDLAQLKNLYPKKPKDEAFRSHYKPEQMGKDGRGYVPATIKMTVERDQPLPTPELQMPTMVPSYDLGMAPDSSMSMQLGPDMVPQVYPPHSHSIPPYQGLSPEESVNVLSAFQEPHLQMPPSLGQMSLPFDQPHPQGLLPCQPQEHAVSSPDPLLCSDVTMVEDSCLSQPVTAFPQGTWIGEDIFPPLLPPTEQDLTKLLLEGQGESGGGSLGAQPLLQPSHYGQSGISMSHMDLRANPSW
Assay type: cell-based
Experimental: This was a HiBit based assay. A HeLa cell line stably transfected with a small protein, LgBit (Large Bit) was obtained from Promega. These cells express endogenous STAT6. A small 11 amino acid gene sequence (HiBiT) was inserted in the STAT6 gene using CRISPR technology. Once STAT6 protein is expressed in the cells, the HiBiT sequence will bind the LgBit in the cells resulting in a functional NanoBiT protein, giving a luminescent tag to STAT6. Single cell clones were prepared and the clone 4.14 was selected for the assay based on that clone showing high luminescence, high STAT6 phosphorylation upon stimulation with IL-4, and inhibition of luminescence when cells were treated with STAT6 siRNA. HeLa LgBiT clone 4.14 cells were suspended in DMEM with 10% FCS, 1% Pen/Strep, Na-pyrovate and Hygromycin B, at a concentration of 1.25*105 cells pr mL. 5000 cells were added pr well of a 384 well plate and 20 nL of compound was added by Echo® liquid handler. NN6394A (terfenadine, a toxic compound) was added to control wells at 50 μM concentration to establish the assay window. In these wells the cells are dead which equals 100% degradation of STAT6. After 4-24 h of incubation at 37° C. under 5% CO2/95% air, 5 μL substrate (Nano-GLO®) was added to the wells and the plates were centrifuged and incubated for 0.5 h. The luminescence in the wells as a measure of non-degraded STAT6 was measured in a plate reader (BMG Pherastar FSX). The measured DC50 (in nM) was determined.

With `CNc1ccn(-c2ccnc3c2cc([C@H](C)N2CC=C(c4c(C)cc(C(=O)N5CCC(CN6CCN(c7ncc(NC8CCC(=O)NC8=O)cc7F)CC6)CC5)cc4F)CC2)n3C)c(=O)c1` (stereo partly drawn) [Example 2g13, 3-((5-fluoro-6-(4-((1-(3-fluoro-5-methyl-4-(1-((S)-1-(1-methyl-4-(4-(methyl-amino)-2-oxopyridin-1(2H)-yl)-1H-pyrrolo[2,3-b]pyridin-2-yl)ethyl)-1,2,3,6-tetrahydro-pyridin-4-yl)benzoyl)piperi-din-4-yl)methyl)piperazin-1-yl)pyridin-3-yl)amino)piperi-dine-2,6-dione] as the compound, how does the Emax read?
Its Emax is 20 to 30%.

`Cc1cc(C(=O)N2CCC(CN3CCN(c4ncc(NC5CCC(=O)NC5=O)cc4F)CC3)CC2)cc(F)c1C1=CCN([C@@H](C)c2cc3c(-n4ccc5c(c4=O)CCN5)ccnc3n2C)CC1` (stereo partly drawn) [Example 2g49, 3-((5-fluoro-6-(4-((1-(3-fluoro-5-methyl-4-(1-((S)-1-(1-methyl-4-(4-oxo-1,2,3,4-tetrahydro-5H-pyrrolo[3,2-c]pyridin-5-yl)-1H-pyrrolo [2,3-b]pyridin-2-yl)ethyl)-1,2,3,6-tetrahydropyridin-4-yl)benzoyl)piperidin-4-yl)-methyl)piperazin-1-yl)-pyridin-3-yl)amino)piperi-dine-2,6-dione] was tested. Which Emax did it give?
The Emax was under 20%.

`CNc1ccn(-c2ccnc3c2cc(CN2CCC(c4c(C)cc(C(=O)N5CCC(CN6CCN(c7ccc(NC8CCC(=O)NC8=O)cc7F)CC6)CC5)cc4F)CC2)n3C)c(=O)c1` (stereo not drawn) [Example 2g60, 3-((3-fluoro-4-(4-((1-(3-fluoro-5-methyl-4-(1-((1-methyl-4-(4-(methylamino)-2-oxopyridin-1(2H)-yl)-1H-pyrrolo[2,3-b]pyridin-2-yl)-methyl)piperidin-4-yl)benzo-yl)piperidin-4-yl)methyl)-piperazin-1-yl)phenyl)amino)-piperidine-2,6-dione] was tested. Which Emax did it give?
The Emax was under 20%.

Which Emax does the source give for `COc1cc(N2CCN(CC3CCN(C(=O)c4cc(C)c(C5=CCN([C@@H](C)c6cc7c(-n8cc(F)c9c(c8=O)CCN9)ccnc7n6C)CC5)c(F)c4)CC3)CC2)ccc1NC1CCC(=O)NC1=O` (stereo partly drawn) [Example 2g130, 3-((4-(4-((1-(3-fluoro-4-(1-((S)-1-(4-(7-fluoro-4-oxo-1,2,3,4-tetrahydro-5H-pyr-rolo-[3,2-c]pyridin-5-yl)-1-methyl-1H-pyrrolo[2,3-b]pyridin-2-yl)ethyl)-1,2,3,6-tetrahydropyridin-4-yl)-5-methylbenzoyl)piperidin-4-yl)methyl)piperazin-1-yl)-2-methoxyphenyl)amino)piper-idine-2,6-dione] here?
The Emax was 30 to 40%.

For `C[C@@H](c1cc2c(-n3cc(F)c4c(c3=O)CCN4)ccnc2n1C)N1CC=C(c2c(F)cc(C(=O)N3CCC(CN4CCN(c5ccc(NC6CCC(=O)NC6=O)cc5F)CC4)CC3)cc2F)CC1` (stereo partly drawn) [Example 2g131, 3-((4-(4-((1-(3,5-difluoro-4-(1-((S)-1-(4-(7-fluoro-4-oxo-1,2,3,4-tetrahydro-5H-pyrrolo [3,2-c]pyridin-5-yl)-1-methyl-1H-pyrrolo[2,3-b]pyridin-2-yl)ethyl)-1,2,3,6-tetrahydro-pyridin-4-yl)benzoyl)piper-idin-4-yl)methyl)piperazin-1-yl)-3-fluorophenyl)amino)-piperidine-2,6-dione], which Emax is on record?
The Emax was 50 to 60%.

Same assay, conditions: geometric mean across assay runs and compound batches; DC50 provided for test compounds with >80% Emax; read-out: STAT6 degradation DC50

`Cc1cc(C(=O)N2CCC(CN3CCN(c4ccc(NC5CCC(=O)NC5=O)cc4F)C[C@H]3C)CC2)cc(F)c1C1=CCN([C@@H](C)c2cc3c(-n4ccc5c(c4=O)CCN5)ccnc3n2C)CC1` (stereo partly drawn) [Example 2g22, 3-((3-fluoro-4-((R)-4-((1-(3-fluoro-5-methyl-4-(1-((S)-1-(1-methyl-4-(4-oxo-1,2,3,4-tetrahydro-5H-pyrrolo[3,2-c]pyridin-5-yl)-1H-pyrrolo[2,3-b]pyridin-2-yl)ethyl)-1,2,3,6-tetrahydro-pyridin-4-yl)-benzoyl)piperidin-4-yl)meth-yl)-3-methylpiperazin-1-yl)-phenyl)amino)piperidine-2,6-dione] was tested. Which DC50 did it give?
Its DC50 is 3.3 nM.

How did the DC50 turn out when `CNc1cc(=O)n(-c2ccnc3c2cc([C@H](C)N2CC=C(c4c(C)cc(C(=O)N5CCC(CN6CCN(c7ccc(NC8CCC(=O)NC8=O)cc7F)C[C@H]6C)CC5)cc4F)CC2)n3C)cc1F` (stereo partly drawn) [Example 2g27, 3-((3-fluoro-4-((R)-4-((1-(3-fluoro-4-(1-((S)-1-(4-(5-fluoro-4-(methylamino)-2-oxopyridin-1(2H)-yl)-1-meth-yl-1H-pyrrolo[2,3-b]pyridin-2-yl)ethyl)-1,2,3,6-tetrahydro-pyridin-4-yl)-5-methylbenz-oyl)piperidin-4-yl)methyl)-3-methylpiperazin-1-yl)phenyl)-amino)piperidine-2,6-dione] was run?
The DC50 was 4.2 nM.

`COc1cc(C2CCN(Cc3cc4n(n3)CCN(C(=O)c3ccc(C5CCN([C@@H](C)c6cc7c(-n8ccc9c(c8=O)CCN9)ccnc7n6C)CC5)cc3)C4)CC2)ccc1NC1CCC(=O)NC1=O` (stereo partly drawn) [Example 2g30, 3-((2-methoxy-4-(1-((5-(4-(1-((S)-1-(1-methyl-4-(4-oxo-1,2,3,4-tetrahydro-5H-pyrrolo [3,2-c]pyridin-5-yl)-1H-pyrrolo[2,3-b]pyridin-2-yl)-ethyl)piperidin-4-yl)benzoyl)-4,5,6,7-tetrahydropyrazolo [1,5-a]pyrazin-2-yl)methyl)-piperidin-4-yl)phenyl)amino)-piperidine-2,6-dione] was tested. Which DC50 did it give?
The DC50 was 2.6 nM.

Which DC50 does the source give for `Cc1cc(C(=O)N2CCC(CN3CCN(c4ccc(NC5CCC(=O)NC5=O)cc4F)CC3)CC2)cc(F)c1C1CCN(Cc2cc3c(-n4ccc5c(c4=O)CCN5)ccnc3n2C)CC1` (stereo not drawn) [Example 2g36, 3-((3-fluoro-4-(4-((1-(3-fluoro-5-methyl-4-(1-((1-methyl-4-(4-oxo-1,2,3,4-tetrahydro-5H-pyrrolo[3,2-c]pyridin-5-yl)-1H-pyrrolo[2,3-b]pyridin-2-yl)methyl)piperi-din-4-yl)benzoyl)piperidin-4-yl)methyl)piperazin-1-yl)-phenyl)amino)piperidine-2,6-dione] here?
The DC50 was 35.7 nM.

With `CNc1ccn(-c2ccnc3c2cc([C@H](C)N2CC=C(c4c(C)cc(C(=O)N5CCC(CN6CCN(c7ccc(NC8CCC(=O)NC8=O)cc7F)CC6)CC5)cc4F)CC2)n3C)c(=O)c1` (stereo partly drawn) [Example 2g37, 3-((3-fluoro-4-(4-((1-(3-fluoro-5-methyl-4-(1-((S)-1-(1-methyl-4-(4-(methyl-amino)-2-oxopyridin-1(2H)-yl)-1H-pyrrolo[2,3-b]pyridin-2-yl)ethyl)-1,2,3,6-tetrahydro-pyridin-4-yl)benzoyl)piperi-din-4-yl)methyl)piperazin-1-yl)phenyl)amino)piperidine-2,6-dione] as the compound, how does the DC50 read?
The DC50 was 1.8 nM.

How did the DC50 turn out when `CNc1ccn(-c2ccnc3c2cc([C@H](C)N2CC=C(c4c(C)cc(C(=O)N5CCC(CN6CCN(c7ccc(NC8CCC(=O)NC8=O)cc7F)C[C@H]6C)CC5)cc4F)CC2)n3C)c(=O)c1` (stereo partly drawn) [Example 2g46, 3-((3-fluoro-4-((R)-4-((1-(3-fluoro-5-methyl-4-(1-((S)-1-(1-methyl-4-(4-(methyl-amino)-2-oxopyridin-1(2H)-yl)-1H-pyrrolo[2,3-b]pyridin-2-yl)ethyl)-1,2,3,6-tetrahydro-pyridin-4-yl)benzoyl)piperi-din-4-yl)methyl)-3-methyl-piperazin-1-yl)phenyl)amino)-piperidine-2,6-dione] was run?
The DC50 was 3.1 nM.

Which DC50 does the source give for `CNc1ccn(-c2ccnc3c2cc(CN2CC=C(c4c(C)cc(C(=O)N5CCC(CN6CCN(c7ccc(NC8CCC(=O)NC8=O)cc7F)CC6)CC5)cc4F)CC2)n3C)c(=O)c1` (stereo not drawn) [Example 2g54, 3-((3-fluoro-4-(4-((1-(3-fluoro-5-methyl-4-(1-((1-methyl-4-(4-(methylamino)-2-oxopyridin-1(2H)-yl)-1H-pyrrolo[2,3-b]pyridin-2-yl)-methyl)-1,2,3,6-tetrahydro-pyridin-4-yl)benzoyl)piperi-din-4-yl)methyl)piperazin-1-yl)phenyl)amino)piperidine-2,6-dione] here?
Its DC50 is 7.3 nM.
